Source: patent US9274101B2 (BIOLOG, Inc., priority 2001, dated 2016)
Where a SMILES comes first, the peptide text is derived from it.

Columns and labels:
E. coli MG1655 = assay type: cell-based, Escherichia coli
ten strains of E. coli = assay type: cell-based, Escherichia coli

SMILES	suitability as nitrogen source (growth, purple color) (E. coli MG1655)	carbon source utilization (ten strains of E. coli)	carbon source utilization (text) (ten strains of E. coli)
NCCO [2-amino ethanol]	not suitable	−	
Nc1ncnc2c1ncn2[C@@H]1O[C@H](CO)[C@@H](O)[C@H]1O [Adenosine]	not suitable	+	
C[C@@H](N)C(=O)O [D-alanine]	positive	+	
N[C@H](CC(=O)O)C(=O)O [D-aspartic acid]	not suitable	−	
N[C@H](CO)C(=O)O [D-serine]	not suitable	+ and −	
NC(=O)[C@@H](O)[C@@H](O)[C@H](O)[C@@H](O)C=O [Glucuronamide]	not suitable	+	
NCC(=O)N[C@@H](CCC(=O)O)C(=O)O [Glycyl-L-glutamic acid] (H-Gly-Glu-OH)	positive	+	
C[C@H](N)C(=O)O [L-alanine]	not suitable	+	
C[C@H](N)C(=O)NCC(=O)O [L-alanyl-glycine] (H-Ala-Gly-OH)	positive	+	
N[C@@H](CC(=O)O)C(=O)O [L-aspartic acid]	positive	+ and −	
N[C@@H](CCC(=O)O)C(=O)O [L-glutamic acid]	positive	+ and −	negative
O=C(O)[C@@H]1CCCN1 [L-proline]	positive	+ and −	negative
N[C@@H](CO)C(=O)O [L-serine]	not suitable	+	
C[C@@H](O)[C@H](N)C(=O)O [L-threonine]	not suitable	+ and −	negative
CC(=O)N[C@H]1C(O)O[C@H](CO)[C@@H](O)[C@@H]1O (stereo partly drawn) [N-acetyl-D-glucosamine]	positive	+	
CC(=O)N[C@H]1[C@@H](O)[C@H](O)[C@@H](CO)O[C@H]1O [N-acetyl-β-D-mannosamine]	not suitable	+ and −	
NCCc1ccccc1 [Phenylethyl amine]	not suitable	−	
NCCc1ccc(O)cc1 [Tyramine]	not suitable	−	
O=c1[nH]c(=O)c2[nH]c(=O)[nH]c2[nH]1 [uric acid]	not suitable		
O=C(O)/C=C/c1c[nH]cn1 [urocanic acid]	not suitable		
O=c1[nH]c(=O)c2[nH]cnc2[nH]1 [xanthine]	not suitable		
O=c1[nH]c(=O)c2ncn([C@@H]3O[C@H](CO)[C@@H](O)[C@H]3O)c2[nH]1 [xanthosine]	not suitable		
NCCCCC(=O)O [δ-amino-n-valeric acid]	positive		
NCCCCCC(=O)O [ε-amino-n-caproic acid]	not suitable		
